This is an account of results in patent US7361662B2, “Pyridopyrimidinone compounds, method for production thereof and medicaments comprising the same” (Les Laboratoires Servier, priority 2002, dated 2008).

The test concerns obese ob/ob mouse (model of obesity-associated insulin resistance). Put plainly: Hypolipaemic activity in the obese ob/ob mouse. Format: in vivo. As for the experimental part: The products of the invention were tested in vivo in the obese ob/ob mouse, used as a model of obesity-associated insulin resistance.

Regarding `CN(C)C(=N)N=C(N)N` [metformin], where the note is “250 mg/kg per os”, the reduction of triglycerides entry is on record as “the same reduction is obtained”. Take `CCCN(CCC)c1nc2c(N3CCCCCC3)nc(N3CCOCC3)cc2c(=O)[nH]1` [Example 6, 8-(1-Azepanyl)-2-(dipropylamino)-6-(4-morpholinyl)pyrido[3,4-d]pyrimidin-4(3H)-one]: the reduction of triglycerides result (125 mg/kg per os) is recorded as “significantly reduces the triglycerides”.
